For one assay, the system named is MDA-MB-231. Description: Cell viability assay (SRB or CTG) in MDA-MB-231. The format is cell-based. To be noted: Homo sapiens, MDA-MB-231, 72 h, 3 days after drug treatment. As for the experimental part: (§1) Human breast carcinoma cell line, MDA-MB-231 and human endometrial cancer cell line, HEC-59 were purchased from ATCC (American Type Culture Collection; USA). MDA-MB-231 cells were cultured in Dulbecco's modified Eagle's medium (Lonza, NJ, USA), and HEC-59 were grown in Iscove's Modified Dulbecco's Medium (Lonza, NJ, USA), supplemented with 10% fetal bovine serum (FBS, Lonza), 1% non-essential amino acid (NEAA), 2 mM L-glutamine (Sigma Aldrich, MO, USA) and 50 U/ml penicillin/streptomycin (P/S). All cell lines were tested regularly using MycoAlert Mycoplasma Detection Kit (Lonza). The cumulative length of the cells between thawing and use in the experiments was less than 20 passages.
(§2) 4000 cells/well of MDA-MB-231 and HEC-59 cells were seeded in a 96 well plate in 80 μL media/well. Approximately 18 hours later, 3× drug solutions were prepared by serial dilution (100, 10, 5, 1, 0.5, 0.3, 0.1, 0.05, 0.01 μM), and the drug containing media was added to each well with a volume of 40 μL. For MDA-MB-231, 3 days after drug treatment, the SRB or CTG assay was performed. HEC59, the drug containing media was renewed at day 4. After 7 days total, the SRB or CTG assay was performed.

The subject of the next assay is HEC-59. Nature of the assay: Cell viability assay (SRB or CTG) in HEC-59. The assay is classed as cell-based. The following applies: Homo sapiens, 7 days total, media renewed at day 4, SRB or CTG. Here is the method: as §1, §2
A further assay has as its system RKO xenograft. Nature of the assay: RKO colon cancer xenograft tumor growth. The assay is classed as in vivo, female athymic Balb/c nude mice. As for the experimental part: Six-to-eight-week-old female athymic Balb/c nude mice were housed with a temperature-controlled and 12-hour light/12-hour dark cycle environment. For in vivo colon cancer tumor growth, 5×10^6 RKO cells were prepared in 100 μl of DMEM and injected into right flank of female nude mice. Mouse weight and tumor volume were measured twice a week. Tumor volumes were calculated as length×width^2×0.5. Once the tumor volume had reached about 150-175 mm^3, xenografts were randomized into groups (8 mice per group). Animals were treated with vehicle, Compound 80 or oxaliplatin as mentioned in the table. The formulation for vehicle and Compound 80 was 50% PEG400 and 20% Cremophor RH40 final (50% of 40% Cremophor) in Acetate buffer, PH=4. Oxaliplatin was prepared in glucose solution. The mice were sacrificed after around 3 weeks or if the tumors reached a predefined tumor volume cut-off of 2500 mm^3.

For another assay, the system named is MDA-MB-231 xenograft. Description: MDA-MB-231 xenograft tumor growth. The format is in vivo, female athymic Balb/c nude mice. To be noted: MDA-MB-231 xenograft, 20, 25 and 30 mpk BID. As for the experimental part:
(§3) Compound 80 was tested in other xenograft models using the following cell lines: triple negative breast cancer cell line, MDA-MB-231, ovarian cancer cell line, SKOV-3 and endometrium cell line, HEC-59. For the SKOV-3 xenograft, 1.5×10^7 SKOV-3 cells in 200 μl of 1:1 DMEM: Matrigel (Thermo Fisher, NJ, USA) and for the MDA-MB-231 xenograft, 1.5×10^7 MDA-MB-231 cells in 100 μl of 1:1 DMEM: Matrigel (Thermo Fisher, NJ, USA) for was injected in the right flank of six-to-eight-week-old female athymic Balb/c nude mice. When the tumor volume reached mean of ˜200 mm^3 mice for SKOV-3 xenografts and between 150-175 mm^3 for MDA-MB-231 xenografts, mice were randomized in a group of 8, and treatment was initiated vehicle, 20 mpk BID, 25 mpk BID and 30 mpk BID of Compound 80. For the HEC-59 xenografts, 1.×10^7 HEC-59 cells in 100 μl of DMEM (Lonza, NJ, USA) was injected in the right flank of six-to-eight-week-old female athymic Balb/c nude mice. When the tumor volume reached mean of ˜150 mm^3 mice were randomized in a group of 8 mice, and treatment was initiated vehicle, 20 mpk BID, 40 mpk QD and 30/40 mpk BID of Compound 80.

For the next assay, the system named is SKOV-3 xenograft. Nature of the assay: SKOV-3 xenograft tumor growth. The assay is classed as in vivo, female athymic Balb/c nude mice. The following applies: SKOV-3 xenograft, 20, 25 and 30 mpk BID. Here is the method:
as §3

In the next assay the test system is HEC-59 xenograft. Description: HEC-59 xenograft tumor growth. The assay is classed as in vivo, female athymic Balb/c nude mice. The following applies: 20 mpk BID, 40 mpk QD and 30/40 mpk BID. Here is the method: as §3

The structures appear in SMILES notation.

For the compound `C[C@@H]1CN(c2ncc(F)c(Nc3cc(-c4ccc(OC(F)F)cc4)cnn3)n2)C[C@H](C)O1` [Compound 80, 5-(4-(difluoromethoxy)phenyl)-N-(2-((2R,6S)-2,6-dimethylmorpholino)-5-fluoropyrimidin-4-yl)pyridazin-3-amine], the IC50 (usually the concentration needed to halve the response being measured) was found to be 398 nM in the assay on MDA-MB-231 and 236 nM in the assay on HEC-59. Further, in the assay on RKO xenograft (RKO xenograft, 20 and 30 mg/kg BID, 50 mg/kg QD PO), the “tumor growth inhibition (in words)” value was “strong tumor growth inhibition in a dose-dependent manner”. Besides, the tumour growth inhibition (TGI) (as a rule, the reduction of tumour growth relative to the control group) in the assay on RKO xenograft (RKO xenograft, at the highest dose, PO, 20 days) is given as 85%. The “tumor growth inhibition compared to the standard of care (FIG. 1)” value in the assay on RKO xenograft (xenograft model, versus standard of care (oxaliplatin)) is given as “superior tumor growth inhibition”. Also, the “tumor growth inhibition or regression” value in the assay with MDA-MB-231 xenograft, in the assay on SKOV-3 xenograft and in the assay with HEC-59 xenograft was “Statistically significant tumor growth inhibition or regression was observed” each time.

The values are drawn from patent US11986475B1, “Compositions and methods for treating cancer” (A2A Pharmaceuticals, Inc., priority 2022, dated 2024).
